According to patent US10041937B2, “Macrophage identification agent, and identification method, sorting method, evaluation method, screening method and kit using the macrophage identifier agent” (CANON KABUSHIKI KAISHA, priority 2013, dated 2018):

Experiments:
[1] = system: M1 macrophages and M2 macrophages differentiated from mouse bone marrow cells; assay: Subtype identification by staining and flow cytometry of M1 and M2 macrophages differentiated from mouse bone marrow cells; type: cell-based, Balb/c mouse; details: general formula (10) dyes (Table 8)
Procedure, shortened: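 Balb/c mouse bone marrow cells were differentiated to macrophages with 50 ng/mL M-CSF over two 3–4-day periods, then polarized for 3 days to M1 (interferon-γ plus polyliposaccharide) or M2 (IL-4). Live cells (aqua dye-negative) were analysed by flow cytometry; resolution R = |FM1−FM2|/(WM1+WM2) from histogram peak positions and widths indexed subtype discrimination.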

[2] = system: M1 macrophages and M2 macrophages differentiated from RAW264.7 cells; assay: Identification of macrophage subtypes differentiated from mouse cell line RAW264.7; type: cell-based; details: RAW264.7 derived M1 and M2
Procedure: The subtypes were identified by using the compound (1) in the same manner as in Example 1 except that the macrophage subtypes differentiated from the mouse bone marrow cells were changed to macrophage subtypes differentiated from a cell line established from mouse monocytic leukemia.
The culture of subtypes was performed with reference to NPL 9. Specifically, RAW264.7 cells purchased from American Type Culture Collection, that is, a cell line established from mouse monocytic leukemia, were subcultured several times, and the resultant cells were dispersed to a concentration of 3.3×10^4/mL in a D-MEM containing 10% FBS, 1% P/S and 1% MEM-NEAA, and 3.3×10^5 cells were seeded in a 100 mm dish. The cells were grown by incubation performed in the presence of 5% CO2 at 37° C. After 2 to 4 days, it was confirmed that an area of about to 70% of the bottom of the dish had been covered by the cells, the medium was then exchanged, and by adding 200 ng of interferon-γ and 1 μg of polyliposaccharide (both manufactured by Pepro Tech) to the medium, the cells were differentiated to the subtype M1. Besides, by adding 100 ng of IL-4, the cells were differentiated to the subtype M2. […]
A histogram was prepared by plotting fluorescence intensity obtained in the FITC channel on the abscissa and plotting the number of cells at each fluorescence intensity on the ordinate, which is shown in FIG. 9.

[3] = system: M1 macrophages and M2 macrophages differentiated from THP-1 cells; assay: Identification of macrophage subtypes differentiated from human cell line THP-1; type: cell-based; details: THP-1 derived M1 and M2
Procedure: The fluorescent signals derived from the compounds (3), (4), (6), (7), (9), (11) to (13), (15), (17), (19) to (26), (28), (30) to (33), (35), (36), (38), (42) to (45), (48) to (62), (65), (67), (74) to (76), (82), (83) and (85) and the comparative compounds (1) and (2) were measured in channels suitable to the respective compounds. Histograms were prepared by plotting fluorescence intensities obtained in the respective channels on the abscissa and plotting the numbers of cells at each fluorescence intensity on the ordinate. A difference between a fluorescence intensity (FM1) at a peak top of the histogram of the M1 macrophage and a fluorescence intensity (FM2) at a peak top of the histogram of the M2 macrophage is divided by a sum of a peak width (WM1) of the histogram of the M1 macrophage and a peak width (WM2) of the histogram of the M2 macrophage, so as to obtain a resolution R, which was used as an index of the identification ability for a subtype (see the following expression (1)). Resolution R=|FM1−FM2|/(WM1+WM2) Expression (1)
Based on the thus obtained values of the resolution R, the identification abilities for the subtypes of the compounds (3), (4), (6), (7), (9), (11) to (13), (15), (17), (19) to (26), (28), (30) to (33), (35), (36), (38), (42) to (45), (48) to (62), (65), (67), (74) to (76), (82), (83) and (85) and the comparative compounds (1) and (2) were evaluated as any of A to C according to the following criteria, and if the resolution R was 0.15 or more, the compound was determined to be good in the subtype identification.
The subtypes were identified by using the compound (1) in the same manner as in Example 1 except that the macrophage subtypes differentiated from the mouse bone marrow cells were changed to macrophage subtypes differentiated from a cell line established from human acute monocytic leukemia.
The culture of subtypes was performed with reference to NPL 10. Specifically, THP-1 cells purchased from JCRB Cell Bank of National Institute of Biomedical Innovation, that is, a cell line established from human acute monocytic leukemia, were subcultured several times, and the resultant cells were dispersed to a concentration of 5.0×10^5/mL in an RPMI1640 containing 10% FBS and 1% P/S, and 5.0×10^6 cells were seeded in a 100 mm dish. The monocytes were differentiated into macrophages by incubating the resultant in the presence of 5% CO2 at 37° C. for 2 days with 500 ng of PMA added thereto. After exchanging the medium, by adding 200 ng of interferon-γ and 1 μg of polyliposaccharide (both manufactured by Pepro Tech) to the medium, the cells were differentiated to the subtype M1. Besides, by adding 200 ng of IL-4 and IL-13, the cells were differentiated to the subtype M2. After incubation performed in the presence of 5% CO2 at 37° C. for 24 hours, the resultant was rinsed with PBS, and PBS containing 0.25% trypsin and 1 mM EDTA (ethylenediaminetetraacetic acid) was used for collecting, from the dish, the macrophages having been differentiated to the subtypes M1 and M2.
Specifically, fluorescent signals derived from the compounds (1) (3) (4) (12) and (15) were measured by using the channels which are appropriate for each of the compounds and the identification abilities for the subtypes of the compounds were evaluated based on the values of the resolution R.

[4] = system: M1 macrophages and M2 macrophages; assay: Analysis of export inhibition of the identification agent by a test substance (FTC, MK-571, DIDS); type: cell-based, mouse; details: FTC 10 μM, compound (1) 1 μM
Procedure: Besides, Fumitremorgin C (manufactured by Sigma-Aldrich, hereinafter referred to as FTC) was added thereto, as a substance for inhibiting export of the compound (1) having been imported into cells, to a concentration of 10 μM, and the resultant was incubated at 37° C. for 30 minutes. Thereafter, the tube was centrifuged at 180 G for 10 minutes to remove the supernatant, and then, 1 mL of a HBSS buffer containing the FTC in a concentration of 10 μM was added thereto to suspend the cells, and the resultant was further incubated at 37° C. for 30 minutes.
Furthermore, each tube was centrifuged at 180 G for 10 minutes to remove the supernatant, the cells were suspended by adding the dye aqua for identifying dead cells thereto, and the resultant was incubated at 4° C. for 10 minutes. Thereafter, the tube was centrifuged at 180 G for 10 minutes to remove the supernatant, and then, the cells were suspended in a FACS buffer and analyzed by using a FACSCanto (trademark) II flow cytometry apparatus manufactured by BD.
The analysis was performed on a cell population showing a low signal for the aqua, so as to analyze a cell population from which dead cells were eliminated.
The analysis was performed in the same manner as in Example 57 except that the FTC was not added.
Thereafter, the tube was centrifuged at 180 G for 10 minutes to remove the supernatant, and then, 1 mL of a HBSS buffer containing the MK-571 in a concentration of 10 μM was added thereto to suspend the cells, and the resultant was further incubated at 37° C. for 30 minutes.
The analysis was performed in the same manner as in Example 79 except that the MK-571 was not added. […] The degree of the enhancement of the peak intensity caused by adding the MK-571 was evaluated by calculating the resolution R described above by using peak intensities in histograms prepared with and without adding the MK-571.
Thereafter, the tube was centrifuged at 180 G for 10 minutes to remove the supernatant, and then, 1 mL of a HBSS buffer containing the DIDS in a concentration of 10 μM was added thereto to suspend the cells, and the resultant was further incubated at 37° C. for 30 minutes.

Compound | Resolution ratio R ([1]; M1 vs M2 macrophages from mouse bone marrow cells) | Evaluation of macrophage subtype identification ([1]; class based on resolution R) | Peak position of M1 macrophage ([1]; mouse bone marrow-derived M1 macrophages, channel listed per compound) | Peak position of M2 macrophage ([1]; mouse bone marrow-derived M2 macrophages, channel listed per compound) | subtype more strongly stained [2] | subtype more strongly stained [3] | enhancement of the fluorescence intensity caused by inhibition of export of the compound (1) [4]
CCN(CC)c1ccc2cc(-c3nc4ccccc4s3)c(=O)oc2c1 [compound (129)] | 0.709 | A (The compound is very good in the subtype identification (namely, the resolution R is 0.5 or more)) | 31.0 | 13.0 | the M1 macrophages were stained more strongly by the compound (129) than the M2 macrophages | the M1 macrophages were stained more strongly by the compound (129) than the M2 macrophages | 
COc1ccc2c3c([nH]c2c1)[C@H](C=C(C)C)N1C(=O)[C@@H]2CCCN2C(=O)[C@@H]1C3 [FTC, Fumitremorgin C] |  |  |  |  |  |  | observed merely in the M2 macrophages
